Laboratory results reported in patent US11801232B2, “Targeting of ARID1A-deficient cancers by inhibiting de novo pyrimidine synthesis pathway” (YALE UNIVERSITY, priority 2019, dated 2023).

Tests used:
[1] = tested on: OVISE cells, LacZ; assay: Cytotoxicity (SRB) assay with CalcuSyn combination analysis; type: cell-based; conditions: Homo sapiens, Table 3, single drug, read-out: Dm
Experimental: (§1) Short Hairpin RNA (shRNA)-Mediated Knockdown and Expression of ARID1A in ovarian and endometrial carcinoma cells. shRNA lentiviral supernatants were produced using standard protocols, as previously described^8. Vectors were transfected into HEK293FT cells using X-tremeGENE 9 DNA Transfection Reagent (from Roche). Retroviral supernatants isolated at 48 h were diluted 1:1 in culture medium and used to infect ARID1A-wildtype ES2 and KLE cell lines. Stably transfected subclones were expanded using puromycin (from Dot Scientific) drug selection. For expression of ARID1A in the ARID1A-mutant HEC-1-A cell line, pCIN4-HA-ARID1A was transfected using X-tremeGENE 9 DNA Transfection Reagent (from Roche), followed by selection with G418 (from Gibco). For expression of ARID1A in the ARID1A-mutant SKOV3 and OVISE cell lines, V5/His-tagged pLenti-puro-LacZ and pLenti-puro-ARID1A were transfected using lentivirus. Lentivirus was produced using HEK293FT cells with the second-generation packaging system pSPAX2 (Addgene plasmid) and pMD2.G (Addgene plasmid). Stably transfected subclones were expanded using puromycin and blasticidin (Gibco) drug selection.
(§2) Cytotoxicity assay. Cells were seeded in 96-well plates, with 2000 cells in 100 μL/well, and cultured for 24 h. The cells were treated with serial dilutions of drugs or without drug for an additional 72 h. Cell number was determined using a sulforhodamine B (SRB) assay, as previously described^23. Briefly, cells were fixed with 20% trichloroacetic acid (TCA), air-dried, and stained with 0.4% SRB dissolved in 1% acetic acid. After washing, protein-bound dye was solubilized with 10 mM unbuffered Tris-base solution (pH 10.5) and detected at 510 nm using a microplate reader. Percentage of cell-growth was calculated using the following formula: % cell growth=[(Absorbance sample)/(Absorbance untreated)]×100
(§3) Using CalcuSyn software (Biosoft), dose-effect curves were generated, and drug concentrations corresponding to a 50% decrease in cell number (IC50) were determined.
(§4) CIwt<0.8, =0.8 to 1.2, and >1.2 indicates synergism, an additive effect, and antagonism, respectively. A CIwt value was assigned as follows: (ED50+2ED75+3ED90)/6. Datasets from at least three independent experiments were combined, and means±SD were calculated for each combination. Teri, teriflunomide. N/A, not applicable. Statistical analysis was carried out by one-way ANOVA with Bonferroni's post-hoc test, and differences were considered significant at ***P<0.001 as compared to the ARID1A restoration group induced by doxycycline with the same drug treatment.

[2] = tested on: OVISE cells, LacZ Dox; assay: as above; type: cell-based; conditions: Homo sapiens, Table 3, single drug, read-out: Dm
Experimental: as §1, §2, §3, §4

[3] = tested on: ARID1A-restoration OVISE cells (ARID1A Dox); assay: as above; type: cell-based; conditions: Homo sapiens, Table 3, single drug, read-out: Dm
Experimental: as §1, §2, §3, §4

[4] = tested on: OVISE cells, ARID1A (not induced); assay: as above; type: cell-based; conditions: Homo sapiens, Table 3, single drug, read-out: Dm
Experimental: as §1, §2, §3, §4

[5] = tested on: γ-H2AX; assay: Immunoblot and immunofluorescence of γ-H2AX in ES2 cells; type: cell-based, human; conditions: ARID1A-knockdown ES2 cells; teriflunomide 15 μM, AZD6738 1.5 μM, VX-970 0.075 μM; 24-72 h
Experimental: Immunoblot Analysis and Co-Immunoprecipitation Assay. For immunoblotting experiments, cells were lysed in BC200 lysis buffer [20 mM Tris-HCl (pH 7.5), 200 mM NaCl, 1 mM EDTA, 0.2% Nonidet P-40 (NP-40), freshly added complete protease inhibitor cocktail (from Roche), and PhosSTOP phosphatase inhibitor (from Roche)] or in boiling SDS lysis buffer [1% SDS and 10 mM Tris-CI (pH 7.5)], as previously described^21. Protein concentrations were quantified using a modified Lowry assay, and equal protein amounts were loaded onto a 10% SDS-PAGE gel and separated by gel electrophoresis, followed by transfer to a nitrocellulose membrane. The nitrocellulose membrane was stained with Ponceau S to confirm equal protein loading and then blocked in 2% BSA in Tris-buffered saline with 0.1% Tween-20 (tris buffered saline with tween, or TBST). Primary antibody incubation was done for 2 h at room temperature or, for phospho-specific antibodies, overnight at 4° C. An HRP-conjugated secondary antibody was used, followed by detection using enhanced chemiluminescence substrate (from Pierce). Autoradiograph images were scanned and saved as unmodified TIFF images, and densitometry analysis was done with ImageJ (from NIH) software.
Immunofluorescence. […] Images of cells were acquired using a BZ-X710 fluorescence microscope (from KEYENCE) and analyzed using ImageJ (from NIH).

SMILES: C[C@@H]1COCCN1c1cc(C2([S@](C)(=N)=O)CC2)nc(-c2cc[nH]c3nccc2-3)n1 [AZD6738]
- IC50 [1]: 0.7 ± 0.03 µM
- IC50 [2]: 0.67 ± 0.11 µM
- IC50 [3]: 6.99 ± 0.34 µM
- IC50 [4]: 0.77 ± 0.16 µM
- γ-H2AX protein levels [5]: increased

SMILES: C/C(O)=C(\C#N)C(=O)Nc1ccc(C(F)(F)F)cc1 [Teriflunomide, teriflunomide]
- IC50 [1]: 18.2 ± 1.19 µM
- IC50 [2]: 19.3 ± 1.24 µM
- IC50 [3]: 109 ± 3.18 µM
- IC50 [4]: 19.1 ± 1.07 µM
